The target of one experiment is murine prion strain RML (Mus musculus, UniProt P04925). The experiment is classed as biochemical.
Another experiment has as its system Vole-CWD prion strain. The arrangement: species or system mice. The note with it: mouse, in vivo.
Experiment [1] concerns human prion strain causing Gerstmann-Sträussler-Scheinker syndrome (GSS). The arrangement: species or system mice. The note with it: mouse, in vivo, ip.
Another experiment concerns 301C. The arrangement: species or system mice. The conditions noted are these: mouse, in vivo.
The next experiment deals with RML. The arrangement: species or system mice. The note with it: mouse, in vivo.
The next experiment deals with 22L. Further details: species or system mice. The conditions noted are these: mouse, in vivo.

From patent EP4389123A1 (priority 2022, dated 2024) come the findings set out here.

murine prion strain RML, sequence (P04925 23-230 limits assumed): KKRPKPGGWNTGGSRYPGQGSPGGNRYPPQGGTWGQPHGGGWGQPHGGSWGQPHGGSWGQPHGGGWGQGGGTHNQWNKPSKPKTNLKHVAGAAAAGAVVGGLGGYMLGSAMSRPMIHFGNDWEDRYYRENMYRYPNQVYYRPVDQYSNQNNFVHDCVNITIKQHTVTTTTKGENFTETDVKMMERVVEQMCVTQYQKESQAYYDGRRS

On to `C[n+]1ccc(-c2c3nc(c(-c4cc[n+](C)cc4)c4ccc([nH]4)c(-c4cc[n+](C)cc4)c4nc(c(-c5cc[n+](C)cc5)c5ccc2[nH]5)C=C4)C=C3)cc1` [TMPyP, reference compound], for which the “prion propagation inhibitory capacity” value on murine prion strain RML is given as “showed prion propagation inhibitory capacity”.

Regarding `O=C(O)CCC1=C(CC(=O)O)c2cc3[nH]c(cc4nc(cc5[nH]c(cc1n2)c(CC(=O)O)c5CCC(=O)O)C(CC(=O)O)=C4CCC(=O)O)c(CC(=O)O)c3CCC(=O)O` [UROI, uroporphyrin I], the “increase in survival time” value in the experiment on Vole-CWD prion strain is 11%; in experiment [1], more than 200%. Moreover, the figures for the survival time prolongation in the experiment on 301C and in the experiment on 22L were 12% and 10%, respectively. In addition, in the experiment with RML, the “increase in survival times” value is on record as 30%. Further, on murine prion strain RML, the “prion propagation inhibitory capacity” value is listed as “showed prion propagation inhibitory capacity”. Further, on murine prion strain RML, the “times more efficient as inhibitor” value is recorded as 125 times.
